Where “and” joins values, the source holds several entries; their conditions need not be identical. Equal entries are not always repeated. Blank lines part the entries; values can stand above or below the compound they belong to.
Experiments:
PK40 = assay: 32P kinase assay, ATP dependence and inhibition of PK40 activity with dephosphorylated NF-M as substrate; assay type: biochemical, bovine; conditions: for relative activity [%] of PK40: % of control
Experimental: (§1) An alternative method for assaying the phosphorylating activity of the kinases was by ^32P assays. Radioactive assays in the same buffer system as for immunoassays contained 5 µg of HTP-purified native NF-triplet as substrate (3µg of substrate proteins other than NFs) and 150-250 cpm/pmole gamma-^32P-ATP. Incubation times were 15 minutes at 37°C for activities up to about 1 pmole/min/assay, since the assay responses were linear within these time intervals. Assays were stopped by cooling on ice, addition of 20 µl 25 mM EDTA and immediate transfer of the mixture onto glass filters (Whatman GF/A) wetted with 10% TCA/2% sodium pyrophosphate (PPA). The glass filters were washed twice for 1 hour and once for at least 3 hours in 10% TCA/2% PPA and finally in ethanol and were air-dried. Radioactivity was assessed by scintillation counting (Beckman LS 230) with 5 ml "Liquiscint" (National Diagnostics) for 20 minutes. Assays were routinely carried out in triplicate except for some duplicate assays in a few explicitly mentioned cases; a control assay lacking NFs was subtracted from the mean value.
The ATP dependence and inhibition of the activities of PK40 and PK36 were determined at 2 mM Mg^2+ with soluble dephosphorylated NF-M as second substrate to avoid uncertainties arising from the aggregation state of NF-triplet in suspension. The optima were at 0.5 - 1 mM ATP for both kinases. Apparent Km values for ATP of both kinases were estimated from Woolf-Hanes plots (Dixon and Webb, 1979) for a range of ATP concentrations sufficiently below the onset of inhibition. […] The apparent Km of PK36 was approximately 50 µM.

PK36 = assay: 32P kinase assay, ATP dependence and inhibition of PK36 activity with dephosphorylated NF-M as substrate; assay type: biochemical, bovine; conditions: % of control
Experimental: as §1, with “Incubation times were 15 minutes at 37°C for activities up to about 1 pmole/min/assay, since the assay responses were linear within these time intervals. Assays were stopped by cooling on ice, addition of 20 µl 25 mM EDTA and immediate transfer of the mixture onto glass filters (Whatman GF/A) wetted with 10% TCA/2% sodium pyrophosphate (PPA).” left out

[1] = target: kinase PK40 (bovine brain) (bovine); assay: cell-based or functional assay
[2] = target: KSP-phosphorylating kinases; assay: Immuno-dotblot assay (SMI-31/SMI-34) of crude enzyme with dephosphorylated NF-triplet; assay type: biochemical, bovine; conditions: ATP [5mM]
Experimental: The preferred method for the immunoassay for detecting KSP-phosphorylating kinases is as follows. Dephosphorylated NF-triplet protein was incubated with the 35-45% ammonium sulfate fraction of the brain supernatant (see section B.). Immuno-dotblot assays were performed in 50 mM HEPES, pH 7.0, 2 mM MgCl2, […], 2 mM DTT in a total volume of 30 µl with 5 µg of dephosphorylated native NF-triplet or 1.2 µg of dephosphorylated pure subunits NF-M or NF-H as substrates together with a control assay lacking NFs. After incubation at 37°C for 18 hours, assays were diluted to 100 µl with 10 mM PBS, pH 7.2, and aliquots of 50 µl were spotted on nitrocellulose (0.22µm, Schleicher and Schüll). Blots were blocked by 1 hour incubation with 3% BSA in 10mM PBS, pH 7.2, and washed once in 0.5% Triton-X100/10 mM PBS. Antibodies were diluted in sterile 10 mM PBS, pH 7.2, 0.5% Triton-X100, 10% fetal calf serum. Blots were incubated with SMI mAbs for at least 2 hours. The blots were then washed five times. Mouse mAbs were detected by reaction with horseradish-peroxidase-linked goat-anti-mouse antibody (Cappel Co.) in 1:200 dilution and by staining with 0.05% 4-chloro-1-naphthol (Sigma) and 0.05% H2O2 in 50 mM TBS, pH 7.5, 33% ethanol for 5-20 minutes. All incubations and washes were at room temperature. Incubations were sealed in plastic bags with 50 µl of solution/cm^2 membrane. […]

Compound: [Cl-].[Na+] [NaCl, sodium chloride]
- relative activity [%] of PK40 (PK40; NaCl 150mM, 15 min, 150000 µM): 27% and 27±1.8%
- relative activity [%] of PK36 (PK36; NaCl 150mM, 15 min, 150000 µM): 40% and 40±0.8%

- relative activity [%] at Walsh Inhibitor 1.5 [M, as printed] (% of the control) [1]: 107
- relative activity [%] at Walsh Inhibitor 4.5 [M, as printed] (% of the control) [1]: 102
- relative activity [%] at Walsh Inhibitor 45 [M, as printed] (% of the control) [1]: 101
Compound: Walsh inhibitor

Compound: ATP
- relative activity [%] of PK40 (PK40; 5mM Mg^2, 5mM ATP): 78±7.1%
- inhibition of PK40 by an excess of ATP (PK40; ATP in relatively small excess over Mg^2+): strongly inhibited
- Km (PK40; PK40, 2 mM Mg^2+, Woolf-Hanes plots, mean ± S.D. of three determinations at three NF-M concentrations, read-out: apparent Km value for ATP): 93 ± 12 µM
- kinase activity (reconstitution of SMI-31 and SMI-34 epitopes) [2]: inhibited
- relative activity [%] of PK36 (PK36; 5mM Mg^2, 5mM ATP): 38±2.2%
